Data on 14 compounds can be found in ChEMBL document CHEMBL1201862, “PubChem BioAssay data set” (2004).

Test [1] is described as follows: Luminescence Cell-Based Dose Response HTS to Identify Activators of Luciferase Translation or Activity in H4 […] Cells. [Related pubchem assays: 1829 (Project Summary), 1814 (Primary HTS)]. The format is functional.
The nature of test [2]: Luminescence Cell-Based Dose Confirmation HTS to Identify Activators of 5'UTR Stem-Loop Driven Alpha-Synuclein mRNA Translation in H4 Neuroglioblastoma Cells. [Related pubchem assays: 1829 (Project Summary), 1814 (Primary HTS)]. The format is functional.
The subject of a further test is H4. In words: Luminescence Cell-Based Dose Response HTS to Identify Activators of 5'UTR Stem-Loop Driven Prion Protein mRNA Translation in H4 Neuroglioblastoma Cells. [Related pubchem assays: 1829 (Project Summary), 1814 (Primary HTS)]. The class given is functional. Conditions: Homo sapiens.
For another test, the target named is Nonstructural protein 1 (Influenza A virus, UniProt Q194T2). The format is functional, Influenza A virus (A/California/07/2009(H1N1)).
A further test concerns the target T1, Coagulation factor XII (Homo sapiens, UniProt P00748).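 Also: activated factor XIIa alpha cleaving a fluorogenic AMC peptide substrate; inhibitor potency from loss of enzyme activity.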
T1 sequence (P00748 whole entry): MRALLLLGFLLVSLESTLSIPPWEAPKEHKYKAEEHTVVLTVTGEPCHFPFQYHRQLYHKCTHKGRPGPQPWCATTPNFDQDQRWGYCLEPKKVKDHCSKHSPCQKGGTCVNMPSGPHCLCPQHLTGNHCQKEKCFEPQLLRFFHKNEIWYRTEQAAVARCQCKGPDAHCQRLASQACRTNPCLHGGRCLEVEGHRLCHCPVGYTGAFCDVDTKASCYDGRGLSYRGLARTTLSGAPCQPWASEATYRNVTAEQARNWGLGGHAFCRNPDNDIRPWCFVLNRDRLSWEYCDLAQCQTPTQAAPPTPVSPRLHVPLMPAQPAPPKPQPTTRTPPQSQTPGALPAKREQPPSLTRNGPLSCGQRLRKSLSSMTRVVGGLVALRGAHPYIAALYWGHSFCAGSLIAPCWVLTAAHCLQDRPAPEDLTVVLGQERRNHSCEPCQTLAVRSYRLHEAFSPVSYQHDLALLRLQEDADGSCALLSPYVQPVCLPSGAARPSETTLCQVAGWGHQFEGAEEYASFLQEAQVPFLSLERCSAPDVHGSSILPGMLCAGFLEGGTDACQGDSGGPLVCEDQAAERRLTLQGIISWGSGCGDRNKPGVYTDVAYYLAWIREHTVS
The class given is functional.

In test [3] the target is T2, Corticotropin-releasing factor receptor 2/Corticotropin-releasing factor-binding protein (Homo sapiens, UniProt P24387+Q13324).
T2 sequence (Q13324 whole entry): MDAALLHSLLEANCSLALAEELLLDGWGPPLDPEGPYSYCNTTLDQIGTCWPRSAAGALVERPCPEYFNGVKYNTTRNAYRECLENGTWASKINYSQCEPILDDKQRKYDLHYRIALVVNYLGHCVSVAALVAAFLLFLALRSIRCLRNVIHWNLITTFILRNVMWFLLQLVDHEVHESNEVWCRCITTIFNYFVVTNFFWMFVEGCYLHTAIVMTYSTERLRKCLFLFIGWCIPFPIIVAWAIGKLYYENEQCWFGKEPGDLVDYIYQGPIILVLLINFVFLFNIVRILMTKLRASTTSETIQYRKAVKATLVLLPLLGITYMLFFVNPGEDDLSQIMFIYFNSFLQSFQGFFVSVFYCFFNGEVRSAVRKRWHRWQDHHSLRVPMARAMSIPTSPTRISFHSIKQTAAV
T2 sequence (P24387 whole entry): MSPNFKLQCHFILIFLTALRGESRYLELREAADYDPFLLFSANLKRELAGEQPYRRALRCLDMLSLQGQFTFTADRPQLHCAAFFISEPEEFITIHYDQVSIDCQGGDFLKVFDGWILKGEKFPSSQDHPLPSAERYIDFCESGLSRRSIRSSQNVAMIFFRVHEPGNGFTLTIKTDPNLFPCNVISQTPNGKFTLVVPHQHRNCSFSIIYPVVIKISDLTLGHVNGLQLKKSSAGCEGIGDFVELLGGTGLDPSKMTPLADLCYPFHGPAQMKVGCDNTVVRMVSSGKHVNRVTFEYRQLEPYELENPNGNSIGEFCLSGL
In words: activators of CRF receptor 2 with binding protein – uHTS hits, confirmation (AID 602473). The class given is functional. Particulars: read-out: EC50_Mean.

Test [4] concerns the target T3, Short transient receptor potential channel 4 (Mus musculus, UniProt Q9QUQ5).
T3 sequence (Q9QUQ5 whole entry): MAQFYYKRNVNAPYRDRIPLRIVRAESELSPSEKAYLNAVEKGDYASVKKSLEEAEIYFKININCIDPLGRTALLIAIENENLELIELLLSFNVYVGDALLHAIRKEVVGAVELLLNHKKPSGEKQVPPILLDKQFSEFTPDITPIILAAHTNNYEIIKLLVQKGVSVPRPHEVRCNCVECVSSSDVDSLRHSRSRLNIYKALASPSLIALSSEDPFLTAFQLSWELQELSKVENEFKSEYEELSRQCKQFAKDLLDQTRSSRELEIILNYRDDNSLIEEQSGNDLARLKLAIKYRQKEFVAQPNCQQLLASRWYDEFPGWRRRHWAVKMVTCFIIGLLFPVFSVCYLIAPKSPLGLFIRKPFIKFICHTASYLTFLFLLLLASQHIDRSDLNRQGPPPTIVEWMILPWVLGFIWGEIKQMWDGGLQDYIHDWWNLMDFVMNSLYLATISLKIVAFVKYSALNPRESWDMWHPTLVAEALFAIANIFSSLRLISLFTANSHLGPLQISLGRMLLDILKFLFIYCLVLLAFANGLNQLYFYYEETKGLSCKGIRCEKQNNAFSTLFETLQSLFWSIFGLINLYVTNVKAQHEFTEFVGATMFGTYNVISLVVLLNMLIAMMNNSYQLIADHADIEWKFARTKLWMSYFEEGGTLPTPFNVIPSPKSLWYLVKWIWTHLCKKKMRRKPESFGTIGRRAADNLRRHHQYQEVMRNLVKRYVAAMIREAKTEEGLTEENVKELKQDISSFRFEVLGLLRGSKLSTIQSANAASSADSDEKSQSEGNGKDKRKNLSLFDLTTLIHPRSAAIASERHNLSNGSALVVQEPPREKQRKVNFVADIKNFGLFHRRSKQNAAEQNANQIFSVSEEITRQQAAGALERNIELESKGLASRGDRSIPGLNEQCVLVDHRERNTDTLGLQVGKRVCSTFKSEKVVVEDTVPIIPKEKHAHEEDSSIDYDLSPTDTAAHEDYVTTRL
The experiment in a line: mouse TRPC4 channel activators, dose response, cell-based, HEK293 TRPC4/mu-opioid, Fluo-4 calcium (AID 434937). The class given is functional.

In another test the test system is HeLa. In words: HeLa cell cytotoxicity, dose response, cytotoxicity control for MITF activator project, CellTiter-Glo luminescence, cherry-pick samples (AID 540259). The class given is functional, cell-based. Particulars: Homo sapiens. (In general: In ATP-based viability assays light output follows the ATP content of the culture.)
Test [5] deals with T4, Carboxy-terminal domain RNA polymerase II polypeptide A small phosphatase 1 (Homo sapiens, UniProt Q9GZU7).
T4 sequence (Q9GZU7 whole entry): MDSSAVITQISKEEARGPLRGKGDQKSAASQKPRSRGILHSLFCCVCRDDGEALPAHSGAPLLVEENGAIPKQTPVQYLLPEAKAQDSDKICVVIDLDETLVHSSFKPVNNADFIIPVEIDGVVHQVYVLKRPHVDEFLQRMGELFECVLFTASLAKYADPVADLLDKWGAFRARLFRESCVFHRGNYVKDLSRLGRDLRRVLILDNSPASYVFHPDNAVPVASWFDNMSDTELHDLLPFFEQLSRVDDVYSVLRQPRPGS
The experiment in a line: inhibitors of CTDSP1, concentration-response testing, biochemical assay, absorbance-based, actives from ultra-high-throughput screening (AID 540297). The class given is functional.

Test [6] has as its target Glucose-6-phosphate 1-dehydrogenase (Homo sapiens, UniProt P11413). In words: human G6PD enzyme inhibitors, dose response, selectivity assay for P. falciparum G6PD inhibitor project, biochemical, fluorescence (AID 504792). The class given is functional.
The nature of test [7]: inhibitors of firefly luciferase expression or activity, dose response, H4 neuroglioma cells, luminescence (AID 1990). The format is functional, cell-based.
The nature of test [8]: inhibitors of SNCA 5'UTR-driven reporter translation, confirmation, H4 neuroglioma cells, luminescence (AID 1988). The format is functional, cell-based.
The nature of test [9]: Luminescence Cell-Based Dose Response HTS to Identify Inhibitors of 5'UTR Stem-Loop Driven Prion Protein mRNA Translation in H4 Neuroglioblastoma Cells. [Related pubchem assays: 1827 (Project Summary), 1813 (Primary HTS)]. The format is functional.
Test [10] addresses T5, Endoribonuclease toxin MazF (Escherichia coli K-12, UniProt P0AE70).
T5 sequence (P0AE70 whole entry): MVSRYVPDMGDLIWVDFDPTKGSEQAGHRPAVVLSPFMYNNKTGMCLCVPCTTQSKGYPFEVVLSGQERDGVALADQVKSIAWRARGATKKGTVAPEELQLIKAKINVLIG
The experiment in a line: fluorescent RNA oligo signal without MazF, dose response, counter-screen for MazEF activator project, biochemical, fluorescence, single-stranded RNase substrate (AID 588502). The class given is functional. A general note: The purpose of a counterscreen is to sort out artefacts and off-target activity.

The target of test [11] is T6, Sentrin-specific protease 1 (Homo sapiens, UniProt Q9P0U3).
T6 sequence (Q9P0U3 whole entry): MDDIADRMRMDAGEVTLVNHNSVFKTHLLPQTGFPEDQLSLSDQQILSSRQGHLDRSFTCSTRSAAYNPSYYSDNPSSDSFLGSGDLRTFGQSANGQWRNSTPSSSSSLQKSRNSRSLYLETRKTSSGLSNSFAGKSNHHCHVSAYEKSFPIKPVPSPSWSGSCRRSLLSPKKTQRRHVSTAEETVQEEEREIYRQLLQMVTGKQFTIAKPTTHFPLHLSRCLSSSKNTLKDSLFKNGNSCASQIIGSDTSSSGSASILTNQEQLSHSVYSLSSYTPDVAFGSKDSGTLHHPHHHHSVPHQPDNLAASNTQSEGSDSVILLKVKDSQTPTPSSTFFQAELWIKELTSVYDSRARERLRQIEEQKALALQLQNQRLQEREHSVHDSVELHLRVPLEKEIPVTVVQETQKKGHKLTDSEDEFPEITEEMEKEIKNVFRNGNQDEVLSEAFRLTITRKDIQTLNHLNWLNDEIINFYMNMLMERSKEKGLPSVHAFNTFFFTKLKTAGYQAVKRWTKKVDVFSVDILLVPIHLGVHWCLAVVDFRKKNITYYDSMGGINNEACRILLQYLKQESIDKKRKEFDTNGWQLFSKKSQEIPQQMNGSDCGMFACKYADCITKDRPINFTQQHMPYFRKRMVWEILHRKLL
In words: potency of human SENP1 inhibitors, dose response, biochemical, kinetic FRET (AID 651697). The class given is functional. Conditions: read-out: IC50_Mean.

Test [12] has as its target T5, Endoribonuclease toxin MazF. The experiment in a line: MazF toxin RNase activators, dose response, biochemical, fluorescence, single-stranded RNA substrate, uHTS hits (AID 588481). The class given is functional.
Another test deals with Genome polyprotein (dengue virus type 2, UniProt P29990). In words: Dengue-2 NS5 methyltransferase inhibitors, primary screen, biochemical, confirmation dose response (AID 588689). The format is functional.
The target in test [13] is T6, Sentrin-specific protease 1. The experiment in a line: Dose response confirmation of small molecule inhibitors of the catalytic domain of the SUMO protease, SENP1 in a FRET assay. The class given is functional. Conditions: read-out: IC50_Mean.

Activity calls are given as the source filed them.

Chain of Glucose-6-phosphate 1-dehydrogenase (P11413 whole entry): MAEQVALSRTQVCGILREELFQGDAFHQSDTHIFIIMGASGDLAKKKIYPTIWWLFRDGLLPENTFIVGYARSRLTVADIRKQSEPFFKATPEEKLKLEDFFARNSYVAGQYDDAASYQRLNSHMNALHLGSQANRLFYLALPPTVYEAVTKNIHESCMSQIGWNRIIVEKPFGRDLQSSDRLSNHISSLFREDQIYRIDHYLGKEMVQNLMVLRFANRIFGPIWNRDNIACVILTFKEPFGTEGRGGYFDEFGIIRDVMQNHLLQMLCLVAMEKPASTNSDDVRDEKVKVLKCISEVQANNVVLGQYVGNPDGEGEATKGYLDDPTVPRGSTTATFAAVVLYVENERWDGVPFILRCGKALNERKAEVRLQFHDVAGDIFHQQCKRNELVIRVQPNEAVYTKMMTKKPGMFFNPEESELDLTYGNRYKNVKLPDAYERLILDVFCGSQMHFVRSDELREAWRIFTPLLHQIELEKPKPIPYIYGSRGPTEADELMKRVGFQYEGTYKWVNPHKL
Chain of Nonstructural protein 1 (Q194T2 whole entry): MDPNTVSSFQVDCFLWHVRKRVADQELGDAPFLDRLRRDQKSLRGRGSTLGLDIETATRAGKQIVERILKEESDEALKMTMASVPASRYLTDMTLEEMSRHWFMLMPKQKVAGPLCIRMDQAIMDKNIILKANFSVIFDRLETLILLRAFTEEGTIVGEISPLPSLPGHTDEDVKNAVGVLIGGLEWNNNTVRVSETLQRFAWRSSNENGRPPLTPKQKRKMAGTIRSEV
Chain of Genome polyprotein (P29990 2492-3391 limits assumed): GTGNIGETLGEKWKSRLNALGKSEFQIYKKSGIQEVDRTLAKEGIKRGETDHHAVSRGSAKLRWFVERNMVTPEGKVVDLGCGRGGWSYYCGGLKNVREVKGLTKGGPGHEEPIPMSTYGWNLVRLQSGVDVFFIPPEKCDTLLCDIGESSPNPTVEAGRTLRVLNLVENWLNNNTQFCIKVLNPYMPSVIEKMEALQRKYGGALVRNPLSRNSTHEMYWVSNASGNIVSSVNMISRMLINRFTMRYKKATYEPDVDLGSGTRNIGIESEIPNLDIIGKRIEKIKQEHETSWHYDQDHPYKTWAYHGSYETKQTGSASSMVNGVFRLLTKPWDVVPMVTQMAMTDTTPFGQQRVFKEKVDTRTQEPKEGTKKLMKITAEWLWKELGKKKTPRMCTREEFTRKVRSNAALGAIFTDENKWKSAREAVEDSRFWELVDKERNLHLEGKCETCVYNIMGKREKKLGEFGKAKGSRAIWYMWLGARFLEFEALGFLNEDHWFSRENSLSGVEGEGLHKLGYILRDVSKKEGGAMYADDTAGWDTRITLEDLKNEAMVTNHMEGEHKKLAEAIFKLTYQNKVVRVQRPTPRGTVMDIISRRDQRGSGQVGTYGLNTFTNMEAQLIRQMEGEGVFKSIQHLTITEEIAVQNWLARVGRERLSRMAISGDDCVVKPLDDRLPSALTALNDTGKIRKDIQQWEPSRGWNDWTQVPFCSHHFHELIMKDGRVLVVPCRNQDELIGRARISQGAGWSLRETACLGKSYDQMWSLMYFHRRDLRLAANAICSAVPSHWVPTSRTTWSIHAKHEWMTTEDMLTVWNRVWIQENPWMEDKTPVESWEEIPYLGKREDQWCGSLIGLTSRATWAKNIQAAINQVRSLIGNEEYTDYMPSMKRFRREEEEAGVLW

Take `C[n+]1c(/C=C/c2ccc(O)cc2)ccc2ccccc21`: the results for the EC50 (in test [1]; in test [2]; in the test with H4) were 5.65 µM (active), 12.5 µM (active) and 7.6 µM (active), respectively. On Nonstructural protein 1, the IC50 was > 100 µM (active).

On to `O=C(COC(=O)c1ccccc1Br)Nc1ccc(F)cc1`, for which, at Coagulation factor XII, the IC50 is > 50 µM (inactive).

As for `Cc1nc2ccccn2c1P(=S)(N1CCCCC1)N1CCCCC1`, the EC50 in test [3] was 23.7 µM (active); in [4], 5.96 µM (active).

As to `COc1ccc(CN(C(=O)c2snc(C(N)=O)c2N)C(C(=O)NC(C)(C)C)c2ccco2)cc1` (stereo not drawn), the IC50 at Coagulation factor XII was > 50 µM (inactive).

The term AC50 denotes the midpoint of the concentration-response curve, whichever way the signal moves. Turning to `CCCN(CCC)c1ncnc2c1cnn2-c1ccc(OC)cc1`, the AC50 in the test with HeLa is 46.3 µM (active).

As to `CC(C1CC2CCC1C2)N1CC(=O)C(c2nc3ccccc3[nH]2)=C1N` (stereo not drawn), the IC50 at Coagulation factor XII was > 50 µM (inactive).

Turning to `Cc1cc(N=NC(=O)c2ccccc2O)c2ccccc2c1O`, the IC50 in test [5] is 5.15 µM (active); in test [6] it was > 80 µM (inactive).

As to `Cc1cc(Br)c2[nH]c3c(c2c1)CCCC3=O`, on Coagulation factor XII, the IC50 is > 50 µM (inactive).

In the case of `Cc1cccc(C(=O)Oc2ccc(/C=N/O)cc2)c1`, the AC50 in the test with HeLa is 41 µM (active).

On to `COc1cc(/C=N/Nc2nncn2N)ccc1OCc1c(C)no[n+]1[O-]`, for which the IC50 in test [6] is 56.3 µM (inactive).

For `COc1ccc(OC)c(/C=N/N(C)c2ccccc2)c1`, the AC50 with HeLa is 44.7 µM (active).

As for `Cc1ccsc1/C=N/NC(=O)Nc1ccccc1`, in the test on HeLa, the concentration at half-maximal activity (AC50) was 60.6 µM (active).

For the compound `CC1(C)OC(=C/C=N/c2ccc(Cl)cc2)OC1(C)C`, the EC50 in [7], in test [8] and in test [9] was > 120 µM (not active) in each case. Also, the IC50 at Coagulation factor XII is > 50 µM (inactive).

In the case of `Cn1c(=O)c2[nH]c(-c3ccccc3)c(O)c2n(C)c1=O`, the EC50 in [10] is 23.3 µM (inactive); in test [3], > 53 µM (inactive); in test [12] it was 33.8 µM (inactive). Moreover, the IC50 was 5.99 µM (active) in test [11], 18.5 µM (active) on Genome polyprotein, > 80 µM (inactive) in test [6] and 5.27 µM (active) in test [13].
